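Dose response: 5 concentrations. Exposure: 48 h. Format: 96-well plates. Endpoint: linear interpolation; highest concentration if not reached. GI50 is the concentration that inhibits growth by half.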 The source made the active and inactive calls. Rule as the data show it: active = GI50 up to about 1.1 µM and inactive = higher.
What was measured:
Test in all cases: NCI anticancer screen, dose series, 48 h
[1] = system: MCF7
[2] = system: EKVX
[3] = system: COLO 205
[4] = system: CAKI-1
[5] = system: SF-268
[6] = system: SNB-75
[7] = system: HL-60
[8] = system: LOX IMVI
[9] = system: Hs-578T
[10] = system: SNB-19
[11] = system: A549
[12] = system: HCT-116
[13] = system: OVCAR-5
[14] = system: PC-3
[15] = system: SF-295
[16] = system: OVCAR-3
[17] = system: MOLT-4
[18] = system: HOP-92
[19] = system: K562
[20] = system: M14

| Compound | GI50 [1] | GI50 [2] | GI50 [3] | GI50 [4] | GI50 [5] | GI50 [6] | GI50 [7] | GI50 [8] | GI50 [9] | GI50 [10] | GI50 [11] | GI50 [12] | GI50 [13] | GI50 [14] | GI50 [15] | GI50 [16] | GI50 [17] | GI50 [18] | GI50 [19] | GI50 [20] |
| --- | --- | --- | --- | --- | --- | --- | --- | --- | --- | --- | --- | --- | --- | --- | --- | --- | --- | --- | --- | --- |
| O=C1c2ccccc2-n2c1nc1ccccc1c2=O [TRYPTANTHRIN] | 7.19 µM (inactive) | 13.4 µM (inactive) | 12.8 µM (inactive) | 12.3 µM (inactive) | 19.9 µM (inactive) | 30.8 µM (inactive) | 3.71 µM (inactive) | 4.44 µM (inactive) | 17.1 µM (inactive) | 25 µM (inactive) | 2.59 µM (inactive) | 5.86 µM (inactive) | 16 µM (inactive) | 0.649 µM (active) | 4.29 µM (inactive) | 4.54 µM (inactive) | 7.94 µM (inactive) | 44.5 µM (inactive) | 3.18 µM (inactive) | 5.65 µM (inactive) |
| CC12CC(Br)(Br)C(=O)C3C1CCCC32 | 4.33 µM (inactive) | 7.1 µM (inactive) | 2.38 µM (inactive) | 2.65 µM (inactive) | 10.2 µM (inactive) | 8.2 µM (inactive) | 0.767 µM (active) | 2.68 µM (inactive) | 12.6 µM (inactive) | 14.2 µM (inactive) | 14.6 µM (inactive) | 1.93 µM (inactive) | 17.8 µM (inactive) | 12.2 µM (inactive) | 15.9 µM (inactive) | 3.15 µM (inactive) | 1.67 µM (inactive) | 2.17 µM (inactive) | 2.1 µM (inactive) | 3.64 µM (inactive) |
| CC(C)=CCC[C@@H](C)[C@H]1CC[C@@]2(C)[C@@H]3CC[C@H]4C(C)(C)[C@@H](O)CC[C@@]45C[C@@]35CC[C@]12C [CYCLOARTENOL] | 31.8 µM (inactive) | 37.2 µM (inactive) | > 60 µM (inactive) | 59.6 µM (inactive) | 27.7 µM (inactive) | > 55.7 µM (inactive) | 33.7 µM (inactive) | 21 µM (inactive) | 33.4 µM (inactive) | 58.7 µM (inactive) | 21.6 µM (inactive) | 23.5 µM (inactive) | > 54.2 µM (inactive) | > 71.8 µM (inactive) | > 48.2 µM (inactive) | > 100 µM (inactive) | > 51.9 µM (inactive) | 17.7 µM (inactive) | 26 µM (inactive) | 41 µM (inactive) |
| O=C1c2cccc3cc4ccccc4c(c23)C(=O)N1CCCNCCNCCCN1C(=O)c2cccc3cc4ccccc4c(c23)C1=O | 0.0191 µM (active) | 1.15 µM (inactive) | 0.0316 µM (active) | 0.141 µM (active) | 0.196 µM (active) | 0.0263 µM (active) | < 0.0171 µM (active) | < 0.01 µM (active) | 0.0635 µM (active) | 0.217 µM (active) | 0.0133 µM (active) | < 0.0191 µM (active) | 0.257 µM (active) | 0.152 µM (active) | 0.0182 µM (active) | 0.353 µM (active) | < 0.01 µM (active) | 1 µM (active) | < 0.01 µM (active) | 0.177 µM (active) |
| O=c1ssc(Cl)c1Cl | > 7.78 µM (inactive) | > 10 µM (inactive) | 2.11 µM (inactive) | 5.38 µM (inactive) | > 10 µM (inactive) | > 10 µM (inactive) | 2.47 µM (inactive) | > 10 µM (inactive) | > 10 µM (inactive) | > 10 µM (inactive) | > 10 µM (inactive) | > 5.98 µM (inactive) | > 10 µM (inactive) | > 10 µM (inactive) | > 10 µM (inactive) | > 10 µM (inactive) | 2.39 µM (inactive) | > 10 µM (inactive) | 3.23 µM (inactive) | > 10 µM (inactive) |
| O=c1ssc2ncccc12 | 13.8 µM (inactive) | 30.2 µM (inactive) | 17.9 µM (inactive) | 56.6 µM (inactive) | 22.1 µM (inactive) | 14.4 µM (inactive) | 42.4 µM (inactive) | 16.3 µM (inactive) | 46.3 µM (inactive) | 39.2 µM (inactive) | 14.9 µM (inactive) | 15.2 µM (inactive) | 26 µM (inactive) | 44 µM (inactive) | 33.5 µM (inactive) | 18.4 µM (inactive) | 64 µM (inactive) | > 100 µM (inactive) | 9.66 µM (inactive) | 17.9 µM (inactive) |
